Experimental data taken from patent US7943575B2, “Sustained release drug formulations containing a carrier peptide” (Ipsen Pharma S.A.S., priority 2002, dated 2011).
Read-outs that look alike come from different tables or passages of the source.

Experiment: Pharmacokinetic profile of a SOMATULINE/DECAPEPTYL composition in beagle dogs (RIA of blood samples)
Format: in vivo
From the text: Once a particular peptide or peptide salt is found to gel in an in vitro assay, e.g., an assay as described above, an in vivo assay can be used to determine the suitability of that peptide salt for use as a sustained-release carrier peptide of a therapeutic agent or agents in animals or humans. A blood level release profile for the carrier peptide and/or the therapeutic agent or agents can be determined by injecting the composition into an animal, e.g., a Sprague Dawley rat, a dog, etc., and testing blood samples taken at specific time intervals, e.g., hourly intervals over 1 to 5 days, or 12 or 24 hour intervals over 5 to 45 days, for the concentration of the peptide and/or therapeutic agent or agents. The suitability of a particular peptide gel, or a peptide/carrier gel, for therapeutic delivery of the carrier peptide and/or therapeutic agent or agents can thus be determined.
Generally, in such an assay animals are anaesthetized with pentobarbital (60 mg/kg i.p. for rats), and a jugular vein is cannulated for blood sampling. A test semisolid suspension or solid composition (or standard solution for comparison purposes), e.g., a SOMATULINE/DECAPEPTYL mixture, is injected subcutaneously at a specific dosage, e.g., 1.0, 3.0, or 6.0 mg/kg of SOMATULINE. After administration of the composition or solution, heparinized blood samples are obtained through the cannula at set time intervals, and plasma is separated after centrifugation. The amount of carrier peptide and/or therapeutic agent(s) in the plasma samples is/are determined by, e.g., a standard radioimmunoassay (RIA) technique that allows a direct measurement of the carrier peptide and/or therapeutic agent(s) without extraction from the rat plasma. The resulting data are plotted (e.g., blood concentration (ng/ml) vs. time) to establish a blood level release profile.
0.15 ml of the foregoing semisolid mixture from Example 1 was loaded into a 0.3 ml insulin syringe and was injected into beagle dogs. Blood samples were collected and standard radioimmunoassay (RIA) analysis was performed thereon.

CC(C)C[C@H](NC(=O)[C@@H](Cc1c[nH]c2ccccc12)NC(=O)[C@H](Cc1ccc(O)cc1)NC(=O)[C@H](CO)NC(=O)[C@H](Cc1c[nH]c2ccccc12)NC(=O)[C@H](Cc1c[nH]cn1)NC(=O)[C@@H]1CCC(=O)N1)C(=O)N[C@@H](CCCNC(=N)N)C(=O)N1CCC[C@H]1C(=O)NCC(N)=O [DECAPEPTYL]
level at 0.24 h (beagle, dog, in vivo, 0.15 ml): 2.66 ng/mL | level at 0.48 h (beagle, dog, in vivo, 0.15 ml): 6.04 ng/mL | level at 0.96 h (beagle, dog, in vivo, 0.15 ml): 9.97 ng/mL | level at 1.92 h (beagle, dog, in vivo, 0.15 ml): 16.4 ng/mL | level at 4.08 h (beagle, dog, in vivo, 0.15 ml): 17.3 ng/mL | level at 6 h (beagle, dog, in vivo, 0.15 ml): 21.2 ng/mL | level at 9.12 h (beagle, dog, in vivo, 0.15 ml): 23.1 ng/mL | level at 24 h (beagle, dog, in vivo, 0.15 ml): 8.11 ng/mL | level at 47.76 h (beagle, dog, in vivo, 0.15 ml): 3.97 ng/mL | level at 72.48 h (beagle, dog, in vivo, 0.15 ml): 3.16 ng/mL | level at 144.96 h (beagle, dog, in vivo, 0.15 ml): 1.35 ng/mL | level at 192.96 h (beagle, dog, in vivo, 0.15 ml): 0.94 ng/mL | level at 241.44 h (beagle, dog, in vivo, 0.15 ml): 0.5 ng/mL | level at 312.96 h (beagle, dog, in vivo, 0.15 ml): 0.42 ng/mL | level at 361.2 h (beagle, dog, in vivo, 0.15 ml): 0.32 ng/mL | level at 408.48 h (beagle, dog, in vivo, 0.15 ml): 0.24 ng/mL | level at 483.36 h (beagle, dog, in vivo, 0.15 ml): 0.19 ng/mL | level at 528.96 h (beagle, dog, in vivo, 0.15 ml): 0.13 ng/mL | level at 577.44 h (beagle, dog, in vivo, 0.15 ml): 0.11 ng/mL | level at 650.88 h (beagle, dog, in vivo, 0.15 ml): 0.07 ng/mL | duration of sustained release of therapeutic levels in the blood (dog, in vivo): one month or longer

CC(C)[C@@H]1NC(=O)[C@H](CCCCN)NC(=O)[C@@H](Cc2c[nH]c3ccccc23)NC(=O)[C@H](Cc2ccc(O)cc2)NC(=O)[C@@H](NC(=O)[C@H](N)Cc2ccc3ccccc3c2)CSSC[C@@H](C(=O)N[C@H](C(N)=O)[C@@H](C)O)NC1=O [SOMATULINE, lanreotide]
level at 0 h (dog, in vivo, TIME 0.00 days, beagle dogs, 0.15 ml Example 1 semisolid mixture injected, read-out: concentration in blood samples (RIA)): 0.02 ng/mL | level at 0.24 h (dog, in vivo, TIME 0.01 days, beagle dogs, 0.15 ml Example 1 semisolid mixture injected, read-out: concentration in blood samples (RIA)): 3.91 ng/mL | level at 0.48 h (dog, in vivo, TIME 0.02 days, beagle dogs, 0.15 ml Example 1 semisolid mixture injected, read-out: concentration in blood samples (RIA)): 7.29 ng/mL | level at 0.96 h (dog, in vivo, TIME 0.04 days, beagle dogs, 0.15 ml Example 1 semisolid mixture injected, read-out: concentration in blood samples (RIA)): 9.34 ng/mL | level at 1.92 h (dog, in vivo, TIME 0.08 days, beagle dogs, 0.15 ml Example 1 semisolid mixture injected, read-out: concentration in blood samples (RIA)): 12.6 ng/mL | level at 4.08 h (dog, in vivo, TIME 0.17 days, beagle dogs, 0.15 ml Example 1 semisolid mixture injected, read-out: concentration in blood samples (RIA)): 17.3 ng/mL | level at 6 h (dog, in vivo, TIME 0.25 days, beagle dogs, 0.15 ml Example 1 semisolid mixture injected, read-out: concentration in blood samples (RIA)): 19.5 ng/mL | level at 9.12 h (dog, in vivo, TIME 0.38 days, beagle dogs, 0.15 ml Example 1 semisolid mixture injected, read-out: concentration in blood samples (RIA)): 17.8 ng/mL | level at 24 h (dog, in vivo, TIME 1.00 days, beagle dogs, 0.15 ml Example 1 semisolid mixture injected, read-out: concentration in blood samples (RIA)): 11.4 ng/mL | level at 47.76 h (dog, in vivo, TIME 1.99 days, beagle dogs, 0.15 ml Example 1 semisolid mixture injected, read-out: concentration in blood samples (RIA)): 9.51 ng/mL | level at 72.48 h (dog, in vivo, TIME 3.02 days, beagle dogs, 0.15 ml Example 1 semisolid mixture injected, read-out: concentration in blood samples (RIA)): 7.77 ng/mL | level at 144.96 h (dog, in vivo, TIME 6.04 days, beagle dogs, 0.15 ml Example 1 semisolid mixture injected, read-out: concentration in blood samples (RIA)): 6.63 ng/mL | level at 192.96 h (dog, in vivo, TIME 8.04 days, beagle dogs, 0.15 ml Example 1 semisolid mixture injected, read-out: concentration in blood samples (RIA)): 5.99 ng/mL | level at 241.44 h (dog, in vivo, TIME 10.06 days, beagle dogs, 0.15 ml Example 1 semisolid mixture injected, read-out: concentration in blood samples (RIA)): 4.88 ng/mL | level at 312.96 h (dog, in vivo, TIME 13.04 days, beagle dogs, 0.15 ml Example 1 semisolid mixture injected, read-out: concentration in blood samples (RIA)): 3.14 ng/mL | level at 361.2 h (dog, in vivo, TIME 15.05 days, beagle dogs, 0.15 ml Example 1 semisolid mixture injected, read-out: concentration in blood samples (RIA)): 2.54 ng/mL | level at 408.48 h (dog, in vivo, TIME 17.02 days, beagle dogs, 0.15 ml Example 1 semisolid mixture injected, read-out: concentration in blood samples (RIA)): 1.85 ng/mL | level at 483.36 h (dog, in vivo, TIME 20.14 days, beagle dogs, 0.15 ml Example 1 semisolid mixture injected, read-out: concentration in blood samples (RIA)): 1.46 ng/mL | level at 528.96 h (dog, in vivo, TIME 22.04 days, beagle dogs, 0.15 ml Example 1 semisolid mixture injected, read-out: concentration in blood samples (RIA)): 1.3 ng/mL | level at 577.44 h (dog, in vivo, TIME 24.06 days, beagle dogs, 0.15 ml Example 1 semisolid mixture injected, read-out: concentration in blood samples (RIA)): 1.11 ng/mL | level at 650.88 h (dog, in vivo, TIME 27.12 days, beagle dogs, 0.15 ml Example 1 semisolid mixture injected, read-out: concentration in blood samples (RIA)): 0.65 ng/mL | level at 698.64 h (dog, in vivo, TIME 29.11 days, beagle dogs, 0.15 ml Example 1 semisolid mixture injected, read-out: concentration in blood samples (RIA)): 0.52 ng/mL | level at 745.2 h (dog, in vivo, TIME 31.05 days, beagle dogs, 0.15 ml Example 1 semisolid mixture injected, read-out: concentration in blood samples (RIA)): 0.52 ng/mL | level at 818.64 h (dog, in vivo, TIME 34.11 days, beagle dogs, 0.15 ml Example 1 semisolid mixture injected, read-out: concentration in blood samples (RIA)): 0.5 ng/mL | level at 866.88 h (dog, in vivo, TIME 36.12 days, beagle dogs, 0.15 ml Example 1 semisolid mixture injected, read-out: concentration in blood samples (RIA)): 0.45 ng/mL | level at 912.72 h (dog, in vivo, TIME 38.03 days, beagle dogs, 0.15 ml Example 1 semisolid mixture injected, read-out: concentration in blood samples (RIA)): 0.34 ng/mL | level at 984.72 h (dog, in vivo, TIME 41.03 days, beagle dogs, 0.15 ml Example 1 semisolid mixture injected, read-out: concentration in blood samples (RIA)): 0.27 ng/mL | level at 1082.4 h (dog, in vivo, TIME 45.10 days, beagle dogs, 0.15 ml Example 1 semisolid mixture injected, read-out: concentration in blood samples (RIA)): 0.17 ng/mL | level at 1160.64 h (dog, in vivo, TIME 48.36 days, beagle dogs, 0.15 ml Example 1 semisolid mixture injected, read-out: concentration in blood samples (RIA)): 0.14 ng/mL | level at 1199.76 h (dog, in vivo, TIME 49.99 days, beagle dogs, 0.15 ml Example 1 semisolid mixture injected, read-out: concentration in blood samples (RIA)): 0.15 ng/mL | level at 1248.24 h (dog, in vivo, TIME 52.01 days, beagle dogs, 0.15 ml Example 1 semisolid mixture injected, read-out: concentration in blood samples (RIA)): 0.21 ng/mL | level at 1368.96 h (dog, in vivo, TIME 57.04 days, beagle dogs, 0.15 ml Example 1 semisolid mixture injected, read-out: concentration in blood samples (RIA)): 0.14 ng/mL | level at 1417.92 h (dog, in vivo, TIME 59.08 days, beagle dogs, 0.15 ml Example 1 semisolid mixture injected, read-out: concentration in blood samples (RIA)): 0.27 ng/mL | level at 1536.48 h (dog, in vivo, TIME 64.02 days, beagle dogs, 0.15 ml Example 1 semisolid mixture injected, read-out: concentration in blood samples (RIA)): 0.21 ng/mL | level at 1584.48 h (dog, in vivo, TIME 66.02 days, beagle dogs, 0.15 ml Example 1 semisolid mixture injected, read-out: concentration in blood samples (RIA)): 0.2 ng/mL | level at 1656.24 h (dog, in vivo, TIME 69.01 days, beagle dogs, 0.15 ml Example 1 semisolid mixture injected, read-out: concentration in blood samples (RIA)): 0.16 ng/mL | level at 1707.6 h (dog, in vivo, TIME 71.15 days, beagle dogs, 0.15 ml Example 1 semisolid mixture injected, read-out: concentration in blood samples (RIA)): 0.15 ng/mL | duration of sustained release of therapeutic levels in the blood (gel with SOMATULINE as carrier peptide and DECAPEPTYL as therapeutic agent, see Example 1): one month or longer
